Patent US20230263915A1, “RADIOLABELED COMPOUNDS” (King's College London, priority 2020, published 2023)

Experiments:
left ventricle function = assay: Echocardiography (cardiac ultrasound) in Doxorubicin minipump rats; type: in vivo
Experimental: In order to assess cardiac function all rats were subjected to a cardiac ultrasound (Vevo 770™, VisualSonics) one day prior to osmotic pump implantation and a second ultrasound one day prior to PET/CT imaging. Rats were anaesthetized with 2% isoflurane in 100% oxygen and maintained at 37° C. via a homoeothermic platform and rectal thermometer. High-resolution parasternal left ventricle (LV) long axis M-mode and B-mode images were obtained using a RMV710B transducer. Images were analysed offline using Vevo Software to determine LV function.
(§1) Male Wistar rats (280-300 g) were used in all experiments. Subcutaneous 7-day osmotic pumps (Alzet), containing either Doxorubicin (Cambridge Bioscience, 30 mg/kg cumulative dose) or vehicle (sterile 0.9% NaCl), were inserted into rats under 2% isoflurane in 100% oxygen.

[1] = Chemoselectivity study: oxidation by superoxide (KO2), radioHPLC; conditions: for oxidation by superoxide: 1 mg/mL KO2 in solution, 5 min, room temperature; for oxidation by superoxide in the presence of ascorbic acid: KO2 plus ascorbic acid 1 mg/mL
Experimental: (§2) The different oxidants were prepared in PBS (900 μL). The ^18F-labelled compound was formulated as 0.5-2 MBq in 100 μL ethanol and added to the oxidant PBS solution. The final reaction mixture contains the ^18F-labelled compound (0.5-2 MBq) in the presence of 100 μM oxidant in PBS with 10% ethanol (final volume 1000 μL). The reaction was kept at room temperature for 5 min, after which it was injected into the HPLC for analysis. • Superoxide (O2^−): The ^18F-labelled compound in ethanol (100 μL) was added to PBS (900 μL) and the resulting solution was then added to a vial containing solid KO2 (1 mg), to make up a reaction mixture with 10 mM O2^−. • Hydrogen peroxide (H202): H2O2 (10 mM stock solution, 10 μL) was diluted in PBS (890 μL) followed by addition of the ^18F-labelled compound in ethanol (100 μL), to a final concentration of 100 μM. • Hydroxyl radical (⋅OH): hydroxyl radicals were generated in situ by reacting hydrogen peroxide (H202, 100 μM) with iron II ([…]). FeSO2.7H2O (5 mM stock, 200 μL) was diluted in PBS (690 μL) and H2O2 (10 mM stock, 10 μL) was added, followed by the ^18F-labelled compound in 100 μL ethanol. • Iron (II) sulfate heptahydrate (Fe^2+) (control): FeSO2.7H2O (5 mM stock, 200 μL) was diluted to a final concentration of 1000 μM in PBS (700 μL), and the ^18F-labelled compound in 100 μL ethanol was added after. • tert-butyl hydroperoxide (TBHP): TBHP (10 mM stock, 10 μL) was diluted in PBS (890 μL) followed by addition of the ^18F-labelled compound in ethanol, to a final concentration of 100 μM. • Tert-butoxy radical (t-BuO⋅): t-butoxy radicals were generated in situ by reacting tert-butyl hydroperoxide (TBHP, 100 μM) with Fe^2+ (1000 μM). FeSO2.7H2O (5 mM stock, 200 μL) was diluted in PBS (690 μL) and TBHP (10 mM stock, 1 μL) was added, followed by the ^18F-labelled compound in ethanol. • Peroxynitrite (ONOO^−): peroxynitrite was generated in situ by spontaneous decomposition of 3-morpholinosydnomine (SIN-1) in solution. SIN-1 (5 mM stock, 1 μL) was diluted in PBS (989 μL) containing the ^18F-labelled compound in ethanol (10 μL), to give a final concentration of 50 μM ONOO^− in solution. • Nitric oxide (NO): NO was generated in situ by the NO-donor drug diethylamine NONOate (DEA/NO). A 33 mM stock solution of DEA/NO in 10 mM NaOH was used. 1 μL was diluted in PBS (990 μL) containing the ^18F-labelled compound in ethanol (10 μL), to give a final concentration of 33 μM DEA/NO in solution. The reaction was allowed to take place for 32 min at room temperature (˜20° C.) to allow DEA/NO to decompose into diethylamine and nitric oxide radical (NO) at a concentration of 50 μM, before HPLC analysis.

[2] = test system: oxidative stress in heart (left ventricle); assay: PET/CT imaging in rat model of Doxorubicin-induced cardiotoxicity; type: in vivo, rats
Experimental: Wistar rats were randomly divided into two groups and were subjected to the implantation of an Alzet Osmotic minipump containing either Doxorubicin (30 mg/kg) in saline (n=6) or saline only (n=4) as control. The minipump releases the drug at a constant rate over seven days, after which PET/CT imaging was performed.
as §1
Doxorubicin (30 mg/kg) or only vehicle (saline) was delivered to the animals using the osmotic minipump for seven days, after which PET/CT imaging was performed.
Animals were placed in a warm box at 37° C. before being transferred to an anaesthesia induction box under an 02 flow rate of 1 L/min with isofluorane levels of 5%. The anaesthetised rats were transferred to the PET bed and kept under anaesthesia with an O2 flow rate of 1 L/min with isofluorane levels of 2.5%. The radiotracer (0.5-2.2 MBq, 200-600 μL in maximum 5% EtOH in PBS) was injected intravenously via a cannula inserted into a tail vein. The injection start time coincided with the start of the PET acquisition in order to obtain dynamic tracer uptake information. The PET scans were acquired for 30 min, followed by a CT scan, after which the animals were sacrificed and organs harvested as for the biodistribution protocol. The PET data was analysed using VivoQuant.
Subsequently, both groups were subjected to 30 min PET/CT scans with chest cavity in the field of view on day 7 of the treatment. (FIG. 8) The PET images were analysed into three segments: from 0 to 3 min, 3 to 10 min, and 10 to 30 min post-injection of ^18F-FM074.

[3] = PET imaging study in healthy C57BL/6J mice; type: in vivo
Experimental: Wild type C57BL/6J mice (male, 26±2 g) were injected intravenously via the tail vein with [^18F]FM074 (1.2±1.1 MBq) in PBS containing sodium ascorbate (0.01 mg/mL). The animals were sacrificed either 3 min post-injection or after a 60 min PET (n=3/group). Organs and tissues of interest were harvested, weighed and the radioactivity measured in a gamma counter. Organ uptake was calculated as percentage injected dose per gram of tissue mass (% ID/g). Data are reported as mean±SD.
The radiotracer is excreted by both renal and hepatobilliary routes in less than 1 hour (FIG. 5).

[4] = LogD measurement, shake-flask partition between 1-octanol and PBS; type: physicochemical; conditions: 1-octanol / PBS pH 7.4
Experimental: The lipophilicity of ^18F-FM074 and ^18F-FM074-Ox was determined by measuring their logD values using a variation of the conventional shake-flask method, namely a conventional partition method between 1-octanol and phosphate buffered saline (PBS), pH 7.4. The 1-octanol was saturated with PBS before use. The radiotracer (1 μL) in ethanol was added to a mixture of PBS (200 μL) and 1-octanol (200 μL) in a 1.5 mL Eppendorf vial (n =6). The vial was sealed and shaken, then centrifuged at 3000 g for 10 min. A 100 μL aliquot from each layer was drawn was added to separate tubes. The radioactivity content of each fraction was measured in a gamma counter. The LogDoct/PBS as calculated as follows: log [(cpm in the 1-octanol layer-cpm 1-octanol blank)/(cpm in the PBS layer-cpm pbs blank)].

[5] = Chemoselectivity study: oxidation by other ROS, radioHPLC; conditions: in vitro; for reactivity to other biologically relevant ROS: qualitative
Experimental: as §2, with “SIN-1 (5 mM stock, 1 μL) was diluted in PBS (989 μL) containing the ^18F-labelled compound in ethanol (10 μL), to give a final concentration of 50 μM ONOO^− in solution. • Nitric oxide (NO): NO was generated in situ by the NO-donor drug diethylamine NONOate (DEA/NO). A 33 mM stock solution of DEA/NO in 10 mM NaOH was used. 1 μL was diluted in PBS (990 μL) containing the ^18F-labelled compound in ethanol (10 μL), to give a final concentration of 33 μM DEA/NO in solution. The reaction was allowed to take place for 32 min at room temperature (˜20° C.) to allow DEA/NO to decompose into diethylamine and nitric oxide radical (NO) at a concentration of 50 μM, before HPLC analysis.” left out

[6] = Biodistribution in healthy Wistar rats; type: in vivo; conditions: for uptake by major organs (brain, heart, lung, spleen): i.v., 1, 5 and 30 min post-injection
Experimental: Male Wistar rats (290-355 g) were placed in a warm box at 37° C. before being transferred to an anaesthesia induction box under an O2 flow rate of 1 L/min with isofluorane levels of 5%. The anaesthetised rat was transferred to an anaesthesia mask with an O2 flow rate of 1 L/min with isofluorane levels of 2.5%. The radiotracer (0.5-2.2 MBq, 200-600 μL in maximum 5% EtOH in PBS) was injected intravenously via a cannula inserted into a tail vein. The animals were sacrificed by cervical dislocation at 1, 5, and 30 min post-injection (n=3/group). The heart was immediately removed and rinsed with saline to washout the blood. Organs of interest as well as blood and urine were collected and the radioactivity measured in a gamma counter.

[7] = test system: xanthine oxidase/xanthine system; assay: Oxidation by superoxide generated by the xanthine oxidase/xanthine system; type: biochemical; conditions: xanthine (1 mM) and catalase in PBS, 37° C., 5 min
[8] = Stability in rat serum at 37° C. determined by radioHPLC; type: in vitro ADME; conditions: 1 hour
Experimental: (§3) Stability tests monitored by HPLC indicate that ^18F-FM074 is stable in both pure ethanol and 1% ethanol in PBS in the presence of ascorbic acid (0.01 mg/mL) for 4 h (not tested for longer). When incubated in rat serum at 37° C., 90% of ^18F-FM074 was intact in 1 hour (FIG. 3(A)). The stability of ^18F-FM108 in PBS was also determined and it was stable in 30 minutes (FIG. 3(B)).

[9] = Stability tests monitored by HPLC in ethanol / PBS; type: physicochemical
Experimental: as §3

[10] = healthy C57BL/6 mice, i.v., PET

COc1cccc2c1C(=O)c1c(O)c3c(c(O)c1C2=O)C[C@@](O)(C(=O)CO)C[C@@H]3O[C@H]1C[C@H](N)[C@H](O)[C@H](C)O1 [Doxorubicin]
reduction of left ventricle ejection fraction vs baseline (left ventricle function; 30 mg/kg via 7-day osmotic minipump, day 6 compared to day 0): 15%
left ventricle ejection fraction, Doxorubicin treated vs control groups (left ventricle function; ultrasound, FIG. 7): no significant difference

[18F]CCCN1c2ccccc2SC1c1ccccc1 (stereo not drawn) [^18F-FM074, [^18F]3-(3-fluoropropyl)-2-phenyl-2,3-dihydrobenzo[d]thiazole]
oxidation by superoxide [1]: 58±8%
oxidation by superoxide in the presence of ascorbic acid [1]: 31±5%
ratio of standard uptake values LV to blood, Doxorubicin-treated vs control rats ([2]; 3-10 min post-injection, day 7 of Doxorubicin 30 mg/kg minipump): significantly (p<0.05) higher
liver uptake ([2]; PET, Doxorubicin model rats, no significant difference between treated and control): high uptake
heart uptake ex vivo after the PET/CT scan, treated vs control ([2]; ex vivo, after 30 min scan): no significant difference
washout rate from the LV, Doxorubicin treated vs control ([2]; time-activity curves, FIG. 10): two-fold slower
non-specific background retention ([3]; healthy C57BL/6 mice, heart and brain, PET): no non-specific background retention
blood clearance [3, 10]: fast blood clearance
time to excretion by renal and hepatobilliary routes [3, 10]: less than 1 hour
tissue penetration [3, 10]: excellent tissue penetration
uptake by heart and brain [3, 10]: rapidly taken up
bone uptake (defluorination in vivo) ([3]; mice, after 1 hour): minimal
logD [4]: 1.00±0.08
reactivity to other biologically relevant ROS [5]: little or no reactivity
oxidation by other endogenous ROS ([5]; ⋅OH, H2O2, ⋅NO, ONOO^−): less than 10%
clearance from the blood pool ([6]; 1 min post-injection): fast clearance
time to clearance from major organs ([6]; hepatic and renal metabolism, excreted to small intestine and urine): under 30 min
uptake by major organs (brain, heart, lung, spleen) [6]: rapid initial uptake
uptake in bone and muscle ([6]; within 30 min): little uptake
oxidised tracer observed in radioHPLC chromatogram [7]: 53%
intact tracer in rat serum [8]: 90%
stability in 1% ethanol in PBS ([9]; 1% ethanol in PBS in the presence of ascorbic acid (0.01 mg/mL), for 4 h, HPLC): stable
stability in pure ethanol ([9]; pure ethanol, for 4 h (not tested for longer), HPLC): stable

[18F]CCC[n+]1c(-c2ccccc2)sc2ccccc21.[Cl-] [^18F-FM074-Ox, [^18F]-(3-fluoropropyl)-2-phenylbenzo[d]thiazol-3-ium chloride]
logD [4]: −1.00±0.04
clearance route ([6]; excreted through the urine): quickly cleared by the kidneys
uptake by major organs (brain, heart, lung, spleen) [6]: significantly reduced uptake

COc1ccc(C2Sc3ccccc3N2CCC[18F])cc1 (stereo not drawn) [^18F-FM108, [^18F]3-(3-fluoropropyl)-2-(4-methoxyphenyl)-2,3-dihydrobenzo[d]thiazole]
oxidation by superoxide [1]: 54±4%
oxidation by superoxide in the presence of ascorbic acid [1]: 38%
logD [4]: 0.83±0.12
reactivity to other biologically relevant ROS [5]: little or no reactivity
stability in PBS ([9]; PBS, 30 minutes (FIG. 3(B))): stable
